# Measured values taken from patent publication US12465584B2, “Agent for elevating nitric oxide concentration” (KYOWA HAKKO BIO CO., LTD., priority 2013, dated 2025).
# Like-named read-outs stand apart in the source and are kept apart here.
# Test system: NOx concentration in blood
# Conditions: male SD rats, blood over 4 hours after last administration, FIG. 1
structure (smiles),measurement,setting,value
"N[C@@H](CCC(=O)N[C@@H](CS)C(=O)NCC(=O)O)C(=O)O [glutathione, γ-L-Glu-L-Cys-Gly]",amount of increase in the NOx concentration in blood plasma from the baseline,"25 mg/kg/day reduced glutathione orally once a day for three days, compared to control group",same tendency
same,amount of increase in the NOx concentration in blood plasma from the baseline,"50 mg/kg/day reduced glutathione orally once a day for three days, compared to control group (P<0.05)",significantly increased
